From patent US10336755B2, “Fused pyrazole derivatives, preparation method thereof, and use thereof in treatment of cancers, inflammation and immune diseases” (Beijing InnoCare Pharma Tech Co., Ltd., priority 2016, dated 2019) come the findings set out here.

Structures are written as SMILES. pIC50: −log10 of the molar value.

Sequence of Bruton tyrosine kinase (BTK) (Q06187 whole entry): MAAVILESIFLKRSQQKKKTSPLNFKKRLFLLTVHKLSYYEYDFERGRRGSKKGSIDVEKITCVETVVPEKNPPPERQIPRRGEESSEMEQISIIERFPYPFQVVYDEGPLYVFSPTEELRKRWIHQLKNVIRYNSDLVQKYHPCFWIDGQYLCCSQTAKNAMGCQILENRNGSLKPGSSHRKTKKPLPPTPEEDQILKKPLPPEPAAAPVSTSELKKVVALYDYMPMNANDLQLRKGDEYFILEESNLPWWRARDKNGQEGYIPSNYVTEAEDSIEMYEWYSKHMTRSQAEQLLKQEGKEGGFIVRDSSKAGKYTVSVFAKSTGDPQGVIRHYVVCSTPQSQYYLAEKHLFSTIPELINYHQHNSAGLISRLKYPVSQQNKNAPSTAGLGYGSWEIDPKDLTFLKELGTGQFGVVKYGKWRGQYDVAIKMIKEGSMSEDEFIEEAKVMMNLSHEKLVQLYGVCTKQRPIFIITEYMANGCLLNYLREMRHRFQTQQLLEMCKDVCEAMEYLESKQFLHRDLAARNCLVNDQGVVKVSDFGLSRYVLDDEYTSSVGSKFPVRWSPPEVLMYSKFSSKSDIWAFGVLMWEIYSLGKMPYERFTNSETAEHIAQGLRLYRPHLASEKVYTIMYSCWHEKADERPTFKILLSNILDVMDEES

The assay deals with Bruton tyrosine kinase (BTK) (Homo sapiens (Human), UniProt Q06187). The experiment in a line: BTK Enzyme Activity Testing (in vitro kinase assay, ADP-Glo kinase assay kit). Type of assay: biochemical. To be noted: BTK kinase (full length with His-Tag), 50 uM ATP in substrate solution, 30 min pre-incubation, 60 min reaction, 10 concentration points. As for the experimental part:
An in vitro kinase assay is used to evaluate the effect of the inventive compounds on Bruton tyrosine kinase (BTK) activity.
The experimental method is generally described as follows:
In vitro activity of BTK is measured by detecting ADP produced in a kinase reaction with an ADP-Glo™ kinase assay kit from Promega Company. In the kinase assay, the kinase consumes ATP to phosphorylate the substrate, while producing ADP. ADP-Glo reagent then terminates the kinase reaction and completely consumes the remaining ATP. Finally, a kinase detection reagent is added to convert generated ADP into new ATP. Luciferase in the detection reagent is capable of catalyzing fluorescein with the participation of ATP and O2 to produce oxidized fluorescein, AMP, and generate light quantum, thereby converting a chemical signal into an optical signal (Luminecence). The intensity of optical signal is positively correlated with the production of ADP in the kinase reaction, so that the activity of kinase BTK can be thereby quantitatively determined.
All assays are conducted at a constant temperature of 23° C., using a Corning 3674 Type white 384-well plate; the BTK kinase (full length with His-Tag) is expressed and purified internally by the company; the substrate of kinase is polypeptide (4:1 Glu,Tyr) (from SignalChem) and ATP (from Sigma); and a microplate reader EnVision (Perkin Elmer) is used for reading an optical signal. The assay buffer includes 40 mM Tris-HCl (pH 7.5), 10 mM MgCl2 (Sigma), 2 mM MnCl2 (Sigma), 0.05 mM DTT (Sigma), and 0.01% BSA (Sigma); the BTK kinase is diluted with the assay buffer to a concentration of 1.6 ng/uL as a kinase reaction solution; and the substrate reaction solution comprises 0.2 mg/mL polypeptide substrate and 50 uM ATP.
Compound's IC50 is calculated from 10 concentration points by the following method. The compound is dissolved and diluted in 100% DMSO to a concentration of 1 mM, followed by a serial 3× dilution with DMSO to a minimum concentration of 0.05 uM. Each concentration stock is further diluted 40× with the assay buffer. To a 384-well assay plate are added 1 uL of a series of compound solutions and 2 uL of the kinase reaction solution, followed by mixing homogeneously, and incubating in the dark at room temperature. After in the dark for 30 min, 2 uL of the substrate reaction solution is added to allowed the total reaction volume to 5 uL. The reaction mixture is incubated in the dark at room temperature in the dark for another 60 min. An equal volume of 5 uL ADP-Glo™ reagent is then added to terminate the reaction. The resulting mixture is homogeneously mixed, and stands at room temperature for 40 min. Finally, 10 uL of the kinase detection reagent is added, stands at room temperature for 30 min, and then a value is read on Envision.
Percent inhibition is calculated based on the following equation: Inhibition %=[1−(RLUcompound−RLUmin)/(RLUmax−RLUmin)]×100 wherein RLUcompound is the luminescence reading at a given concentration of compound, RLUmin is the luminescence reading in the absence of kinase, and RLUmax is the luminescence reading in the absence of compound. IC50 of the compound is calculated by using a XLfit program in Excel.
For orientation: In ADP-Glo the light output rises with the ADP produced.
`C=CC(=O)N1CCCC(c2cc3cn[nH]c3c(-c3ccc(CN4CCOCC4)cc3)n2)C1` (centres unmarked) [Compound 1, 1-(3-(7-(4-(morpholinomethyl)phenyl)-1H-pyrazolo[3,4-c]pyridin-5-yl)piperidin-1-yl)prop-2-en-1-one] showed a pIC50 of 6.30 to 7.00.
`C=CC(=O)N1CCCC(c2cc3cn[nH]c3c(-c3ccc(OC4COC4)cc3)n2)C1` (centres unmarked) [Compound 2, 1-(3-(7-(4-(oxetan-3-oxy)phenyl)-1H-pyrazolo[3,4-c]pyridin-5-yl)piperidin-1-yl)prop-2-en-1-one] gave a pIC50 of 6.30 to 7.00.
`C=CC(=O)N1CCCC(c2cc3cn[nH]c3c(-c3ccc(Oc4ccccc4)cc3)n2)C1` (centres unmarked) [Compound 3, 1-(3-(7-(4-phenoxyphenyl)-1H-pyrazolo[3,4-c]pyridin-5-yl)piperidin-1-yl)prop-2-en-1-one] had a pIC50 greater than 7.00.
Take `CN(C)C/C=C/C(=O)N1CCCC(c2cc3cn[nH]c3c(-c3ccc(Oc4ccccc4)cc3)n2)C1` (centres unmarked) [Compound 4, (E)-4-(dimethylamino)-1-(3-(7-(4-phenoxyphenyl)-1H-pyrazolo[3,4-c]pyridin-5-yl)piperidin-1-yl)but-2-en-1-one]: the pIC50 is greater than 7.00.
Then `C=CS(=O)(=O)N1CCCC(c2cc3cn[nH]c3c(-c3ccc(Oc4ccccc4)cc3)n2)C1` (centres unmarked) [Compound 5, 7-(4-phenoxyphenyl)-5-(1-(ethenylsulfonyl)piperidin-3-yl)-1H-pyrazolo[3,4-c]pyridine], with greater than 7.00.
The compound `C=CC(=O)N1CCC(c2cc3cn[nH]c3c(-c3ccc(Oc4ccccc4)cc3)n2)C1` (centres unmarked) [Compound 6, 1-(3-(7-(4-phenoxyphenyl)-1H-pyrazolo[3,4-c]pyridin-5-yl)pyrrolidin-1-yl)prop-2-en-1-one] had a pIC50 greater than 7.00.
`C=CC(=O)N1CCC(c2cc3cn[nH]c3c(-c3ccc(Oc4ccccc4)cc3)n2)CC1` [Compound 7, 1-(4-(7-(4-phenoxyphenyl)-1H-pyrazolo[3,4-c]pyridin-5-yl)piperidin-1-yl)prop-2-en-1-one] gave a negative logarithm of the IC50 (pIC50) greater than 7.00.
With `C=CC(=O)Nc1cccc(-c2cc3cn[nH]c3c(-c3ccc(Oc4ccccc4)cc3)n2)c1` [Compound 8, N-(3-(7-(4-phenoxyphenyl)-1H-pyrazolo[3,4-c]pyridin-5-yl)phenyl)acrylamide], the pIC50 is greater than 7.00.
For `C=CC(=O)N1CCN(c2cc3cn[nH]c3c(-c3ccc(Oc4ccccc4)cc3)n2)CC1` [Compound 9, 1-(4-(7-(4-phenoxyphenyl)-1H-pyrazolo[3,4-c]pyridin-5-yl)piperazin-1-yl)prop-2-en-1-one], the pIC50 is greater than 7.00.
As to `C=CC(=O)NC1CCN(c2cc3cn[nH]c3c(-c3ccc(Oc4ccccc4)cc3)n2)C1` (centres unmarked) [Compound 10, N-(1-(7-(4-phenoxyphenyl)-1H-pyrazolo[3,4-c]pyridin-5-yl)pyrrolidin-3-yl)acrylamide], the pIC50 is greater than 7.00.
The compound `C=CC(=O)N1CCC(Nc2cc3cn[nH]c3c(-c3ccc(Oc4ccccc4)cc3)n2)C1` (centres unmarked) [Compound 11, 1-(3-((7-(4-phenoxyphenyl)-1H-pyrazolo[3,4-c]pyridin-5-yl)amino)pyrrolidin-1-yl)prop-2-en-1-one] had a negative-log IC50 (pIC50) greater than 7.00.
Take `C=CC(=O)N1CCC(c2cc3cn[nH]c3c(-c3ccc(OC4CCCC4)cc3)n2)CC1` [Compound 12]: the negative logarithm of the IC50 (pIC50) is greater than 7.00.
For `C=CC(=O)N1CCC(c2cc3cn[nH]c3c(-c3ccc(Oc4ccccn4)cc3)n2)CC1` [Compound 13, 1-(4-(7-(4-(pyridin-2-oxy)phenyl)-1H-pyrazolo[3,4-c]pyridin-5-yl)piperidin-1-yl)prop-2-en-1-one], the negative logarithm of the IC50 (pIC50) is greater than 7.00.
In turn, `C=CC(=O)N1CCC(c2cc3cn[nH]c3c(-c3ccc(Oc4ccccc4)cc3F)n2)CC1` [Compound 14, 1-(4-(7-(2-fluoro-4-phenoxyphenyl)-1H-pyrazolo[3,4-c]pyridin-5-yl)piperidin-1-yl)prop-2-en-1-one] showed a negative-log IC50 (pIC50) greater than 7.00.
Take `C=CC(=O)N1CCC(c2cc3cn[nH]c3c(-c3ccc(Oc4cccc(F)c4)cc3)n2)CC1` [Compound 15, 1-(4-(7-(4-(3-fluorophenoxyl)phenyl)-1H-pyrazolo[3,4-c]pyridin-5-yl)piperidin-1-yl)prop-2-en-1-one]: the negative-log IC50 (pIC50) is greater than 7.00.
In the case of `C=CC(=O)N1CCC(c2cc3cn[nH]c3c(-c3ccc(CN4CCCC4)cc3)n2)CC1` [Compound 16, 1-(4-(7-(4-(pyrrolidin-1-ylmethyl)phenyl)-1H-pyrazolo[3,4-c]pyridin-5-yl)piperidin-1-yl)prop-2-en-1-one], the pIC50 is less than 6.30.
In the case of `CC#CC(=O)N1CCCC(c2cc3cn[nH]c3c(-c3ccc(Oc4ccccc4)cc3)n2)C1` (centres unmarked) [Compound 17, 1-(3-(7-(4-phenoxyphenyl)-1H-pyrazolo[3,4-c]pyridin-5-yl)piperidin-1-yl)but-2-yn-1-one], the negative logarithm of the IC50 (pIC50) is 6.30 to 7.00.
Compound `C=CC(=O)N1CCC(c2cc3cn[nH]c3c(-c3ccc(C(=O)Nc4ccccn4)cc3)n2)C1` (centres unmarked) [Compound 18, 4-(5-(1-acryloylpyrrolidin-3-yl)-1H-pyrazolo[3,4-c]pyridin-7-yl)-N-(pyridin-2-yl) benzamide] gave a negative logarithm of the IC50 (pIC50) greater than 7.00.
In turn, `CC#CC(=O)N1CCC(c2cc3cn[nH]c3c(-c3ccc(C(=O)Nc4ccccn4)cc3)n2)C1` (centres unmarked) [Compound 19, 4-(5-(1-(but-2-ynoyl)pyrrolidin-3-yl)-1H-pyrazolo[3,4-c]pyridin-7-yl)-N-(pyridin-2-yl)benzamide] gave a pIC50 of 6.30 to 7.00.
Take `C=CC(=O)N1CCCC(c2cc(-c3ccc(Oc4ccccc4)cc3)c3[nH]ncc3c2)C1` (centres unmarked) [Compound 20, 1-(3-(7-(4-phenoxyphenyl)-1H-indazol-5-yl)piperidin-1-yl)prop-2-en-1-one]: the negative-log IC50 (pIC50) was greater than 7.00.
In the case of `C=CC(=O)N1CCCC1c1cc2cn[nH]c2c(-c2ccc(Oc3ccccc3)cc2)n1` (centres unmarked) [Compound 21, 1-(2-(7-(4-phenoxyphenyl)-1H-pyrazolo[3,4-c]pyridin-5-yl)pyrrolidin-1-yl)prop-2-en-1-one], the pIC50 was greater than 7.00.
As to `C=CC(=O)N1CC[C@H](c2cc3cn[nH]c3c(-c3ccc(Oc4ccccc4)cc3)n2)C1` [Compound 22a, (S)-1-(3-(7-(4-phenoxyphenyl)-1H-pyrazolo[3,4-c]pyridin-5-yl)pyrrolidin-1-yl)prop-2-en-1-one], the pIC50 was greater than 7.00.
As for `C=CC(=O)N1CC[C@@H](c2cc3cn[nH]c3c(-c3ccc(Oc4ccccc4)cc3)n2)C1` [Compound 22b, (R)-1-(3-(7-(4-phenoxyphenyl)-1H-pyrazolo[3,4-c]pyridin-5-yl)pyrrolidin-1-yl)prop-2-en-1-one], the figure is greater than 7.00.

A word on the pIC50: it is −log10 of the IC50, conventionally taken in molar units.
